{
  "source": "paper PMC3706879",
  "about": "“The neurotrophic compound J147 reverses cognitive impairment in aged Alzheimer's disease mice” (Alzheimer's Research & Therapy, 2013)",
  "key": {"[1]": {"experiment": "pharmacokinetic profile in mice, per oral administration (Pharmaron)", "assay_type": "in vivo, CD1 Mice", "procedure": "The pharmacokinetics of J147 in the mouse brain and plasma were evaluated using standard procedures. Blood and brain distribution of J147 following per oral (PO) administration was plotted for mice as a function of time (Figure 5). […] Additional de-risking and target identification screens were carried out at 10 μM J147 by various CROs (Table 2). […] All original data are available upon request.\nFigure 5 Pharmacokinetic profile of J147 in mice. (A) The pharmacokinetic profile of J147 in mice was done by Pharmaron (Louisville, KY, USA). Plasma (B) and brain (C) distribution of J147 was plotted as a function of time following or per oral (PO) administration at 20 mg/kg."}, "MDRI-MDCK": {"test_system": "MDRI-MDCK", "details": "MDCK-MDR1"}, "huAPP/PS1 mice": {"test_system": "huAPP/PS1 mice", "experiment": "two-day water maze in aged huAPP/PS1 mice", "assay_type": "in vivo", "details": "200 ppm in food for three months, vs AD control", "procedure": "(§1) The APPswe/PS1ΔE9 transgenic mice have been previously characterized. The line 85 mice carry two transgenes, the mouse/human chimeric APP/Swe, linked to Swedish FAD and human PS1ΔE9. At 20 months of age both male and female transgenic mice were fed a high fat diet (Harlan Tekland, Madison, WI, USA) with and without J147 (200 ppm, 10 mg/kg/day). Treatment continued for three months and was followed by behavior testing and sacrifice of mice for tissue harvesting. […] (Data not shown).\nSpatial memory was determined using the two-day water maze in 23-month-old huAPPswe/PS1 transgenic mice fed J147 at 200 ppm in food for the previous three months. The protocol was adapted from a publication by Gulinello and colleagues. Water temperature remained at 27°C throughout the experiment. The goal platform was positioned 45 cm from the outside wall in the north-west quadrant of the maze for all groups and all trials. Day 1 of the two-day water maze procedure involved training the mice to find the platform using cues located around the pool within a 180 s time frame. […] The time it took each mouse to find the hidden platform was measured as escape latency. […] All trials were recorded using the EthoVision Software and statistics were computed using GraphPad Instat software (GraphPad Software, San Diego, CA, USA)."}, "Aβ1-40 and Aβ1-42": {"test_system": "Aβ1-40 and Aβ1-42", "experiment": "Aβ ELISA of hippocampus of aged huAPP/PS1 mice", "assay_type": "in vivo", "details": "three months J147", "procedure": "as §1\nHippocampal and entorhinal cortex tissue samples were homogenized in 10 volumes of RIPA lysis buffer (50 mM Tris, pH 7.5, 150 mM NaCl, 0.1% sodium dodecyl sulfate and 0.5% deoxycholate, and 1% NP40) containing a cocktail of protease and phosphatase inhibitors ([…] each of pepstatin A, aprotinin, phosphoramidon, and leupeptin; 0.5 mM 4-(2-aminoethyl) benzenesulfonyl fluoride hydrochloride; 1 mM EGTA; 5 mM fenvalerate; and 5 mM cantharidin). Samples were sonicated (2 × 10 s) and centrifuged at 100,000 × g for 60 minutes at 4°C. Protein concentrations in the cell extracts were determined using the BCA protein assay (Pierce supplied by Thermo Fisher Scientific, Rockford, IL, USA). Equal amounts of protein were solubilized in 2.5x SDS-sample buffer, separated on 12% SDS-polyacrylamide gels, transferred to Immobulin P and immunoblotted with the antibodies indicated in the Materials section. For Western blots, protein levels were normalized to actin levels. An unpaired t test was performed to compare between two groups at a single time point. When comparing multiple groups, one-way ANOVA followed by a Tukey's post hoc test was used. All statistical analysis was conducted using GraphPad Instat software.\nAβ 1 to 40 and 1 to 42 levels in hippocampal lysate were analyzed using the Aβ1-40 and Aβ1-42 ELISA kits from Invitrogen (# KHB3481 and # KHB3442, respectively). All kit reagents were brought to room temperature before use. Standards were prepared according to the manufacturer's guidelines and samples were diluted as follows; RIPA fractions were diluted 1:10 for both Aβ1-40 and Aβ1-42; and RIPA insoluble fractions were diluted 1:2,000 for Aβ1-40 and 1:5,000 for Aβ1-42. A total of 50 μl of Aβ peptide standards and samples were added in duplicate to 96-well plates pre-coated with mAb to the NH2 terminus region of Aβ. Plates were incubated at 4°C overnight and then 50 μl of Hu Aβ40 or Aβ42 detection antibody was added to each well except the chromogen blanks. […] Stop solution was then added at 100 μl to each well followed by reading the absorbance of each well at 450 nm. […] The concentrations of the samples were calculated from the standard curve and multiplied by the dilution factor."}, "dopamine transporter": {"target": "dopamine transporter (Homo sapiens, UniProt Q01959)", "sequence (Q01959 whole entry)": "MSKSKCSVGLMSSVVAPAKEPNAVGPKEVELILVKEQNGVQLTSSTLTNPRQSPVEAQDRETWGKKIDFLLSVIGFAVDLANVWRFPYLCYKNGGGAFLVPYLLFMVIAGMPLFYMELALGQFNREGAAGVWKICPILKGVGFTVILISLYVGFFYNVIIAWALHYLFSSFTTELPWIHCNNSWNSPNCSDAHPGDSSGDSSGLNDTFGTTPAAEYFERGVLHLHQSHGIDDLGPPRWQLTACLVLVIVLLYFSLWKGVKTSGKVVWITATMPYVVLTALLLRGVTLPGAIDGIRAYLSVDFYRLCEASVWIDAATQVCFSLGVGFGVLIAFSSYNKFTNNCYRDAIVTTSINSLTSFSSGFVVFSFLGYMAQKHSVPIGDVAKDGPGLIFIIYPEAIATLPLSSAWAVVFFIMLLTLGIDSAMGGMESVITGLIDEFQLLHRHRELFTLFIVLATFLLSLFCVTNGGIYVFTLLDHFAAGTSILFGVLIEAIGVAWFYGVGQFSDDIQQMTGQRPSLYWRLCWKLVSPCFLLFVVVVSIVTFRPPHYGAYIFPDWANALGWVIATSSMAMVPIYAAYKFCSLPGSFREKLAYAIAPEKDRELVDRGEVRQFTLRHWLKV", "experiment": "dopamine transporter assay (MDS Pharma Services)", "assay_type": "binding", "procedure": "All screening was done at 10 μM J147 by various contract research organizations (CROs), including MDS Pharma Services (King of Prussia, PA, USA), Ricerca, now Panlabs (Concord, OH, USA), Ambit (La Jolla, CA, USA), Caliper (Hopkinton, MA, USA) and NovaScreen Biosciences (Hanover, MD, USA) by standard protocols described in their catalogs."}, "hERG": {"target": "hERG (Homo sapiens, UniProt Q12809)", "sequence (Q12809 whole entry)": "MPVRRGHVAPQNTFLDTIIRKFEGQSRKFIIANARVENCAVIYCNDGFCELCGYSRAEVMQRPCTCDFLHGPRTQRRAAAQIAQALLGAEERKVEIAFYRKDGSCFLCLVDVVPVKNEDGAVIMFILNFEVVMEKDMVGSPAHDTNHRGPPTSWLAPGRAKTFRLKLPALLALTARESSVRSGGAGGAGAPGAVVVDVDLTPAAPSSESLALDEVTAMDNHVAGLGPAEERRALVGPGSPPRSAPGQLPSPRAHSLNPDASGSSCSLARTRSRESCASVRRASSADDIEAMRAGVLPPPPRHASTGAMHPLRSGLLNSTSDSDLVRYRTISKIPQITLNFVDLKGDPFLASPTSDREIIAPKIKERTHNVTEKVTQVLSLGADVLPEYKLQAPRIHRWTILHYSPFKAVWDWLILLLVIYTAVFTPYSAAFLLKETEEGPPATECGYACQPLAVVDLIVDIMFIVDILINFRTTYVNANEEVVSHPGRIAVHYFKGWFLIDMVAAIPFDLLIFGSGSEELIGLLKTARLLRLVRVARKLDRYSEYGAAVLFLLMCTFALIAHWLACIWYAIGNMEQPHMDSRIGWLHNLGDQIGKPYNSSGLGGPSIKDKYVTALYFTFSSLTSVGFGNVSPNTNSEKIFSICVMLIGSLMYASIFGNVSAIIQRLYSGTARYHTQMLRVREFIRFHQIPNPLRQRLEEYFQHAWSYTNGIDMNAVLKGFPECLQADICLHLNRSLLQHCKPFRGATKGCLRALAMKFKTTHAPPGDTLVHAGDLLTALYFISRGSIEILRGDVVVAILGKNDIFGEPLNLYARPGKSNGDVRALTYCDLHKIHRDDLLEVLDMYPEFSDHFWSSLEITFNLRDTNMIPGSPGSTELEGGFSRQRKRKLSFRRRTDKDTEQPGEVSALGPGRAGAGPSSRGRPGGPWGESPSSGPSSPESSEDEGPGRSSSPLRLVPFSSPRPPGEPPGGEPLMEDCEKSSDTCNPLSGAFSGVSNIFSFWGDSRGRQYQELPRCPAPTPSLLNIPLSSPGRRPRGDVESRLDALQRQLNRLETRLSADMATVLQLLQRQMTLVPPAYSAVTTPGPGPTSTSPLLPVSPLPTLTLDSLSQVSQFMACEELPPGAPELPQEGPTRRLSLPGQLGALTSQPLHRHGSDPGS"}, "normal rodents": {"test_system": "normal rodents", "design": "method as in PMID 22194796", "details": "cited from earlier work"}, "APP/swePS1ΔE9 mice": {"test_system": "APP/swePS1ΔE9 mice", "design": "method as in PMID 22194796", "details": "cited from earlier work"}},
  "data": [
    {"compound": "COc1cccc(/C=N/N(C(=O)C(F)(F)F)c2ccc(C)cc2C)c1", "note": "[J147, (E)-N-(2,4-dimethylphenyl)-2,2,2-trifluoro-N'-(3methoxybenzyli-dene) acetohydrazide]", "values": [
      {"measurement": "brain levels", "setting": "[1]; at 2 h after a single dose of 20 mg/kg in mice", "result": "about 600 nM"},
      {"measurement": "half life", "setting": "[1]; brain, mice, PO", "result": 2.5, "unit": "h"},
      {"measurement": "bioavailability following oral administration", "setting": "[1]; mice, PO", "result": 28, "unit": "%"},
      {"measurement": "half life", "setting": "[1]; plasma, mice, PO", "result": 1.5, "unit": "h"},
      {"measurement": "brain to blood ratio", "setting": "[1]; single dose of 20 mg/kg in mice", "result": "approximately 0.5"},
      {"measurement": "MDRI-MDCK brain transport rates classification (BBB penetration)", "setting": "MDRI-MDCK", "result": "High"},
      {"measurement": "spatial navigational memory (escape latency, hidden platform Day 2)", "setting": "huAPP/PS1 mice", "result": "significantly improved the spatial navigational memory"},
      {"measurement": "Aβ1-40 levels, RIPA insoluble fraction", "setting": "Aβ1-40 and Aβ1-42", "result": "reduced"},
      {"measurement": "Aβ1-42 levels, RIPA insoluble fraction", "setting": "Aβ1-40 and Aβ1-42", "result": "not altered"},
      {"measurement": "RIPA soluble Aβ1-40", "setting": "Aβ1-40 and Aβ1-42", "result": "decreased"},
      {"measurement": "RIPA soluble Aβ1-42", "setting": "Aβ1-40 and Aβ1-42", "result": "decreased"},
      {"measurement": "inhibition, dopamine transporter", "setting": "dopamine transporter; 10 μM J147", "result": "greater than 60%"},
      {"measurement": "EC50", "setting": "dopamine transporter; dose response, re-assay after screening", "result": 649, "unit": "nM"},
      {"measurement": "penetration in the Caco-2 assay", "setting": "Caco-2", "result": "moderate and symmetrical penetration"},
      {"measurement": "hERG assay", "setting": "hERG", "result": "negative"},
      {"measurement": "memory in normal rodents", "setting": "normal rodents", "result": "facilitates memory in normal rodents"},
      {"measurement": "loss of synaptic proteins and cognitive decline", "setting": "APP/swePS1ΔE9 mice; administered to three-month-old APP/swePS1ΔE9 mice for seven months", "result": "prevents the loss of synaptic proteins and cognitive decline"},
      {"measurement": "levels of BDNF in the hippocampus", "setting": "APP/swePS1ΔE9 mice; huAPP/PS1 transgenic mice", "result": "increases the levels of BDNF"}
    ]}
  ]
}
